The values that follow come from PMC12168975 (Drug Design, Development and Therapy, 2025).

The nature of data set [1]: Pharmacokinetic drug-drug interaction study of BBR, TOFA and FIGA in rats. The data set is classed as in vivo, Sprague-Dawley rats.
For data set [2] the following is noted: cited from earlier work.
Data set [3] can be described thus: Stability of simulated plasma. The data set is classed as physicochemical, rat. Conditions: simulated plasma samples; freeze-thaw cycles, room temperature storage and autosampler storage; found to be stable.
The conditions of data set [4]: poor solubility and permeability; cited from earlier work.
The conditions of data set [5]: cited from earlier work. This is another data set of the same source.
[6] abbreviates: FIGA combined with berberine hydrochloride compared to FIGA alone.
Where [7] appears, read: FIGA co-administered with itraconazole.
Setting [8] is: FIGA co-administered with rifampin.
Where [9] appears, read: TOFA combined with BBR compared to TOFA alone.

Structures can show the parent of a compound that is named as a salt. Where two headings read alike, the source gives them in different places.

With `COc1ccc2cc3[n+](cc2c1OC)CCc1cc2c(cc1-3)OCO2` [BBR, berberine hydrochloride], the “effect of concomitant TOFA and FIGA on the pharmacokinetic parameters of BBR” value in data set [1] (BBR with vs without TOFA or FIGA) is on record as “no significant differences”. The oral bioavailability is 5% in data set [2] (ref 20) and “lower than 5%” in data set [2] (ref 35). In addition, the “relative errors (RE %) of stability assessment” value (shortened to “relative errors (RE %)”) in data set [3] is “less than 15.0%”. Moreover, the “Biopharmaceutics Classification System class” value in data set [4] is on record as “Class IV”.
In the case of `O=C(Nc1nc2cccc(-c3ccc(CN4CCS(=O)(=O)CC4)cc3)n2n1)C1CC1` [FIGA, Filgotinib], in data set [1] (setting [6]), the “decrease in CL” value is reported as 1.64 fold, the “decrease in Tmax” value was determined as 2.09 fold, the “increase in AUC(0-t)” value amounted to 1.67 fold and the “increase in Cmax” value was 2.26 fold. In addition, in data set [5] (setting [7]), the “increase of Cmax” value is recorded as 64% and the increase of bioavailability is recorded as 45%. In addition, in data set [5] (setting [8]), the “reduction of Cmax” value is reported as 26% and the reduction of bioavailability is on record as 27%. Also, the “relative errors (RE %)” value in data set [3] is listed as “less than 15.0%”.
For `C[C@@H]1CCN(C(=O)CC#N)C[C@@H]1N(C)c1ncnc2[nH]ccc12` [TOFA, Tofacitinib], in data set [1] (setting [9]), the “decrease in AUC(0-t)” value turned out to be 1.76 fold, the “increase in CL” value is listed as 1.63 fold and the “increase in time to peak concentration” value is on record as 2.49 fold. The “relative errors (RE %)” value in data set [3] is reported as “less than 15.0%”.
